Data from US7098340B2, “Benzyl sulfonamide derivatives” (Warner Lambert Company LLC, priority 2003, dated 2006).

Target: T1, androgen receptor (Homo sapiens, UniProt P10275)
T1 sequence (P10275 1-920 Q868H): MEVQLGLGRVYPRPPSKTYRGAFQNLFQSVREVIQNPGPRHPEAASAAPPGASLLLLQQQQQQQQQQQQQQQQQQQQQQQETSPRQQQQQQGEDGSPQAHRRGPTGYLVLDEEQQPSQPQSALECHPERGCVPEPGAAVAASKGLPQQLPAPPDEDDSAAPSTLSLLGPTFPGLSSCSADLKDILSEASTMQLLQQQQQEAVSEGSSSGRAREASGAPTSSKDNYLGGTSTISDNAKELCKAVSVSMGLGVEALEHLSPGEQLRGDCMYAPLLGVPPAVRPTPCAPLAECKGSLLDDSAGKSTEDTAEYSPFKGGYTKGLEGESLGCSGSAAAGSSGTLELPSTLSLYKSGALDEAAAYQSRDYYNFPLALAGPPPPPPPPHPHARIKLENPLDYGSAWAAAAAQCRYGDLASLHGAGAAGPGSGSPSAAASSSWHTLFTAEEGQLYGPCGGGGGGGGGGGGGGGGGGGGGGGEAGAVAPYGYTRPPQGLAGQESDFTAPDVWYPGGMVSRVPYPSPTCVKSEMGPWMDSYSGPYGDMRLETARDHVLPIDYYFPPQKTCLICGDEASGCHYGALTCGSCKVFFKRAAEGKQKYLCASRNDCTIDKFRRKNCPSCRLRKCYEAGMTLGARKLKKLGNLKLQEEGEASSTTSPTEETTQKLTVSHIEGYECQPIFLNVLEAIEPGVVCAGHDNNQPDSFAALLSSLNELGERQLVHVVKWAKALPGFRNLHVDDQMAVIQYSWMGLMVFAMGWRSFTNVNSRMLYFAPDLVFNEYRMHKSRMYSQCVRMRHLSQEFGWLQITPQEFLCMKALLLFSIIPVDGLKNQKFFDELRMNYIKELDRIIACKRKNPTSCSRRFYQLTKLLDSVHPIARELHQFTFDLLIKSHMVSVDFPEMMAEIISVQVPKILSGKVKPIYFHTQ
Assay: AR Antagonist Cell Assay (MMTV-luciferase reporter, DHT-stimulated)
Format: cell-based
Settings: MDA-MB453-MMTV clone 54-19 cells; antagonism of 100 pM DHT, 17 hr, luciferase readout
Procedure, shortened: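 MDA-MB453 cells stably carrying MMTV-ARE-firefly luciferase, in 1% charcoal-treated serum, preincubated 30 min with compound (10 uM or 1 uM) then stimulated with 100 pM DHT for 17 h at 37° C. Luminescence read; result as % inhibition of DHT fold induction.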

Structure (SMILES) | IC50
O=c1cc(C(F)(F)F)c2cc(Cc3ccc(S(=O)(=O)Nc4cccc(OC(F)F)c4)cc3)ccc2o1 [Example 143, N-(3-Difluoromethoxyphenyl)-4-(2-oxo-4-trifluoromethyl-2H-chromen-6-ylmethyl)-benzenesulfonamide] | 2.81 µM
O=c1cc(C(F)(F)F)c2cc(Cc3ccc(S(=O)(=O)Nc4cccc(-c5cnco5)c4)cc3)ccc2o1 [Example 144, N-(3-Oxazol-5-ylphenyl)-4-(2-oxo-4-trifluoromethyl-2H-chromen-6-ylmethyl)-benzenesulfonamide] | 2.17 µM
O=c1cc(C(F)(F)F)c2cc(Cc3ccc(S(=O)(=O)Nc4ccccc4N4CCCCC4)cc3)ccc2o1 [Example 146, 4-(2-Oxo-4-trifluoromethyl-2H-chromen-6-ylmethyl)-N-(2-piperidin-1-ylphenyl)-benzenesulfonamide] | 4.82 µM
O=c1cc(C(F)(F)F)c2cc(Cc3ccc(S(=O)(=O)Nc4cccc(OC(F)(F)F)c4)cc3)ccc2o1 [Example 147, 4-(2-Oxo-4-trifluoromethyl-2H-chromen-6-ylmethyl)-N-(3-trifluoromethoxyphenyl)-benzenesulfonamide] | 8.58 µM
O=c1cc(C(F)(F)F)c2cc(Cc3ccc(S(=O)(=O)Nc4cccc(Cc5ccccc5)c4)cc3)ccc2o1 [Example 149, N-(3-Benzylphenyl)-4-(2-oxo-4-trifluoromethyl-2H-chromen-6-ylmethyl)benzenesulfonamide] | 4.74 µM
O=c1cc(C(F)(F)F)c2cc(Cc3ccc(S(=O)(=O)Nc4cccc(OCc5ccccc5)c4)cc3)ccc2o1 [Example 152, N-(3-Benzyloxyphenyl)-4-(2-oxo-4-trifluoromethyl-2H-chromen-6-ylmethyl)-benzenesulfonamide] | 0.77 µM
CC(C)(C)c1cc(NS(=O)(=O)c2ccc(Cc3ccc4oc(=O)cc(C(F)(F)F)c4c3)cc2)cc(C(C)(C)C)c1 [Example 153, N-(3,5-Di-tert-butylphenyl)-4-(2-oxo-4-trifluoromethyl-2H-chromen-6-ylmethyl)-benzenesulfonamide] | > 10 µM
COc1ccc(N(Cc2ccccc2)S(=O)(=O)c2ccc(Cc3ccc4oc(=O)cc(C(F)(F)F)c4c3)cc2)cc1 [Example 154, N-Benzyl-N-(4-methoxyphenyl)-4-(2-oxo-4-trifluoromethyl-2H-chromen-6-ylmethyl)benzenesulfonamide] | 6.06 µM
O=c1cc(C(F)(F)F)c2cc(Cc3ccc(S(=O)(=O)Nc4ccc(-n5ccc(C(F)(F)F)n5)cc4)cc3)ccc2o1 [Example 155, 4-(2-Oxo-4-trifluoromethyl-2H-chromen-6-ylmethyl)-N-[4-(3-trifluoromethylpyrazol-1-yl)phenyl]benzenesulfonamide] | 6.5 µM
O=c1cc(C(F)(F)F)c2cc(Cc3ccc(S(=O)(=O)NC4CCN(Cc5ccccc5)CC4)cc3)ccc2o1 [Example 157, N-(1-Benzylpipendin-4-yl)-4-(2-oxo-4-trifluoromethyl-2H-chromen-6-ylmethyl)benzenesulfonamide] | 6.09 µM
O=c1cc(C(F)(F)F)c2cc(Cc3ccc(S(=O)(=O)NC4CCCC4)cc3)ccc2o1 [Example 158, N-Cyclopentyl-4-(2-oxo-4-trifluoromethyl-2H-chromen-6-ylmethyl)benzenesulfonamide] | 6.5 µM
O=c1cc(C(F)(F)F)c2cc(Cc3ccc(S(=O)(=O)NC[C@H](O)CO)cc3)ccc2o1 [Example 160, N-(2,3-Dihydroxypropyl)-4-(2-oxo-4-trifluoromethyl-2H-chromen-6-ylmethyl)benzenesulfonamide] | > 10 µM
O=c1cc(C(F)(F)F)c2cc(Cc3ccc(S(=O)(=O)NCC4CCCCC4)cc3)ccc2o1 [Example 165, N-Cyclohexylmethyl-4-(2-oxo-4-trifluoromethyl-2H-chromen-6-ylmethyl)benzene-sulfonamide] | ~10 µM
O=c1cc(C(F)(F)F)c2cc(Cc3ccc(S(=O)(=O)NC4CCCCCC4)cc3)ccc2o1 [Example 166, N-Cycloheptyl-4-(2-oxo-4-trifluoromethyl-2H-chromen-6-ylmethyl)benzenesulfonamide] | 6.97 µM
O=c1cc(C(F)(F)F)c2cc(Cc3ccc(S(=O)(=O)NC4(CO)CCCC4)cc3)ccc2o1 [Example 167, N-(1-Hydroxymethyl-cyclopentyl)-4-(2-oxo-4-trifluoromethyl-2H-chromen-6-ylmethyl)benzenesulfonamide] | > 10 µM
O=c1cc(C(F)(F)F)c2cc(Cc3ccc(S(=O)(=O)NCCCn4ccnc4)cc3)ccc2o1 [Example 174, N-(3-Imidazol-1-ylpropyl)-4-(2-oxo-4-triftuoromethyl-2H-chromen-6-ylmethyl)benzenesulfonamide] | 5.5 µM
O=c1cc(C(F)(F)F)c2cc(Cc3ccc(S(=O)(=O)NCCC4=CCCCC4)cc3)ccc2o1 [Example 175, N-(2-Cyclohex-1-enylethyl)-4-(2-oxo-4-trifluoromethyl-2H-chromen-6-ylmethyl)benzenesulfonamide] | 8.5 µM

More lines, now with the values ahead:

IC50 | Structure (SMILES)
~10 µM | CC(C)Oc1cccc(NS(=O)(=O)c2ccc(Cc3ccc4oc(=O)cc(C(F)(F)F)c4c3)cc2)c1 [Example 142, N-(3-Isopropoxyphenyl)-4-(2-oxo-4-trifluoromethyl-2H-chromen-6-ylmethyl)-benzenesulfonamide]
1.72 µM | O=c1cc(C(F)(F)F)c2cc(Cc3ccc(S(=O)(=O)Nc4cccc(C(F)(F)F)c4)cc3)ccc2o1 [Example 145, 4-(2-Oxo-4-trifluoromethyl-2H-chromen-6-ylmethyl)-N-(3-trifluoromethylphenyl)-benzenesulfonamide]
3.13 µM | CCOC(=O)Cc1ccc(NS(=O)(=O)c2ccc(Cc3ccc4oc(=O)cc(C(F)(F)F)c4c3)cc2)cc1 [Example 148, {4-[4-(2-Oxo-4-trifluoromethyl-2H-chromen-6-ylmethyl)-benzenesulfonylamino]-phenyl}acetic acid ethyl ester]
7.2 µM | CCOc1ccc(NS(=O)(=O)c2ccc(Cc3ccc4oc(=O)cc(C(F)(F)F)c4c3)cc2)cc1 [Example 150, N-(4-Ethoxyphenyl)-4-(2-oxo-4-trifluoromethyl-2H-chromen-6-ylmethyl)-benzenesulfonamide]
1.75 µM | O=c1cc(C(F)(F)F)c2cc(Cc3ccc(S(=O)(=O)Nc4ccc(CCO)cc4)cc3)ccc2o1 [Example 151, N-[4-(2-Hydroxyethyl)phenyl]-4-(2-oxo-4-trifluoromethyl-2H-chromen-6-ylmethyl)-benzenesulfonamide]
1.72 µM | COc1cccc(NS(=O)(=O)c2ccc(Cc3ccc4oc(=O)cc(C(F)(F)F)c4c3)cc2)c1 [Example 156, N-(3-Methoxyphenyl)-4-(2-oxo-4-trifluoromethyl-2H-chromen-6-ylmethyl)benzene-sulfonamide]
> 10 µM | CC(C)CCNS(=O)(=O)c1ccc(Cc2ccc3oc(=O)cc(C(F)(F)F)c3c2)cc1 [Example 159, N-(3-Methylbutyl)-4-(2-oxo-4-trifluoromethyl-2H-chromen-6-ylmethyl)benzenesulfonamide]
3.08 µM | O=c1cc(C(F)(F)F)c2cc(Cc3ccc(S(=O)(=O)NCc4cccnc4)cc3)ccc2o1 [Example 163, 4-(2-Oxo-4-trifluoromethyl-2H-chromen-6-ylmethyl)-N-pyridin-3-ylmethylbenzenesulfonamide]
5.81 µM | Cc1cccc(CNS(=O)(=O)c2ccc(Cc3ccc4oc(=O)cc(C(F)(F)F)c4c3)cc2)c1 [Example 169, N-(3-Methylbenzyl)-4-(2-oxo-4-trifluoromethyl-2H-chromen-6-ylmethyl)benzenesulfonamide]
9.62 µM | Cc1ccccc1CNS(=O)(=O)c1ccc(Cc2ccc3oc(=O)cc(C(F)(F)F)c3c2)cc1 [Example 171, N-(2-Methylbenzyl)-4-(2-oxo-4-trifluoromethyl-2H-chromen-6-ylmethyl)benzenesulfonamide]
4.66 µM | C[C@H](NS(=O)(=O)c1ccc(Cc2ccc3oc(=O)cc(C(F)(F)F)c3c2)cc1)c1ccccc1 [Example 172, 4-(2-Oxo-4-trifluoromethyl-2H-chromen-6-ylmethyl)-N-(1-phenylethyl)-benzenesulfonamide]
7.68 µM | O=c1cc(C(F)(F)F)c2cc(Cc3ccc(S(=O)(=O)NCc4ccc(F)cc4)cc3)ccc2o1 [Example 173, N-(4-Fluorobenzyl)-4-(2-oxo-4-trifluoromethyl-2H-chromen-6-ylmethyl)benzenesulfonamide]
6 µM | O=c1cc(C(F)(F)F)c2cc(Cc3ccc(S(=O)(=O)NCCc4cccs4)cc3)ccc2o1 [Example 176, 4-(2-Oxo-4-trifluoromethyl-2H-chromen-6-ylmethyl)-N-(2-thiophen-2-ylethyl)benzenesulfonamide]
